Data set [1] concerns the target T1, TYK2 (Homo sapiens, UniProt P29597). The data set is described as follows: TYK2 biochemical test (33P-ATP filter binding kinase assay). The note with it: room temperature, 2 hours. The method, then:
(§1) The tests were conducted by Reaction Biology Corp, Malvern, PA (Anastassiadis et al. Nat Biotechnol. 2011; 29(11):1039-45). The step is briefly described as follows.
(§2) Basic reaction buffer: 20 mM Hepes (pH 7.5), 10 mM MgCl2, 1 mM EGTA, 0.02% Brij35, 0.02 mg/ml BSA, 0.1 mM Na3VO4, 2 mM DTT and 1% DMSO. The required cofactor was added to each kinase reaction respectively.
(§3) • 1. Preparing the designated substrate in the newly prepared basic reaction buffer; • 2. Transferring the required cofactor to the above matrix solution; • 3. Transferring the designated kinase to the substrate solution and mixing well slightly; • 4. Transferring a compound of formulae I-III in DMSO to the kinase reaction mixture with Acoustic technique (Echo550; nanoliter range), culturing for 20 minutes at room temperature; • 5. Introducing ^33P-ATP (specific activity: 10 μCi/μl) to the reaction mixture to trigger a reaction; • 6. Culturing at room temperature and conducting a kinase reaction for 2 hours; • 7. Plotting the reaction on P81 ion exchange paper; • 8. Testing the kinase activity with a filter binding assay.

The target in data set [2] is T2, JAK1 (Homo sapiens, UniProt P23458). The data set is described as follows: JAK1 biochemical test (33P-ATP filter binding kinase assay). The note with it: room temperature, 2 hours. The method, then: as §1, §2, §3
T2 sequence (P23458 whole entry): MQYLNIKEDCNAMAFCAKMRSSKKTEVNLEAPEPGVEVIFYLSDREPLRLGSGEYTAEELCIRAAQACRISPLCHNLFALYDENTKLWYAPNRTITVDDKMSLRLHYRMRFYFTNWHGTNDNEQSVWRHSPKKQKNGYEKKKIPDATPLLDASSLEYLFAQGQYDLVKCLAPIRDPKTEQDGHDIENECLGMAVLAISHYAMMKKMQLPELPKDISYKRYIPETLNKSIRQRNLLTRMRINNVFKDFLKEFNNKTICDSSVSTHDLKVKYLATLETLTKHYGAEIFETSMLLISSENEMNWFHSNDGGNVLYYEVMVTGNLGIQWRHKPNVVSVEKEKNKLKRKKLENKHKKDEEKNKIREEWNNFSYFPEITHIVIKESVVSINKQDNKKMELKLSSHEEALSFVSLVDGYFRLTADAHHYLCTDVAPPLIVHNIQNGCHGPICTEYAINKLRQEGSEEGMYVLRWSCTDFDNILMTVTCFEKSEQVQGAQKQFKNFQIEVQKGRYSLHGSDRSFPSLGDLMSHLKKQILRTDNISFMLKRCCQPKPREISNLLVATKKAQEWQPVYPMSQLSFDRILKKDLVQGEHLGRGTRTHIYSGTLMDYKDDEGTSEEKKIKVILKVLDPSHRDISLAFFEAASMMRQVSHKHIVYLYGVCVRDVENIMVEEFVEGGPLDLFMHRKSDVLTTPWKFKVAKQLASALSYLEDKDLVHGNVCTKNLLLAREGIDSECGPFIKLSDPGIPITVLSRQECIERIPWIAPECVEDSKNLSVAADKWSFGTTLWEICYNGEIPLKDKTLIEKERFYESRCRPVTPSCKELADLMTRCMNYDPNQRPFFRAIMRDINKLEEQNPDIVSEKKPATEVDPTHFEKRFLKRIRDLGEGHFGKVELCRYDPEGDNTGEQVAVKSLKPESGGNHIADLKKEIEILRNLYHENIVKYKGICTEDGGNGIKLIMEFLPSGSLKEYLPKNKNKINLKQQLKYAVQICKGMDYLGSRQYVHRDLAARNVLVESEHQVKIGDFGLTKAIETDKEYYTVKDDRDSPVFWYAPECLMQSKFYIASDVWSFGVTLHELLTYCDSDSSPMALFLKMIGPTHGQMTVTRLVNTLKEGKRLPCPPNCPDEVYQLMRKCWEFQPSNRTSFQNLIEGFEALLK
The next data set concerns TYK2/JAK1/JAK2. Briefly: TYK2/JAK1/JAK2 biochemical tests, comparative summary. The method, then:
as §1, §2, §3

For data set [3], the target named is T1, TYK2. Briefly: TYK2 cellular ELISA assay using NK92 cells (IL-12 and IL-18 stimulated IFNγ excretion). Type of data set: cell-based. The note with it: IL-12 2 ng/ml and IL-18 5 ng/ml, 24 hours. The procedure:
Purpose: test cellular TYK2 activity using IL-12 and IL-18 stimulated IFNγ excretion assay in NK92 cells.
• 1. Replace NK92 cell media with IL-2 by media without IL-2, maintain overnight; • 2. Plate NK92 cells to 96-well plate at density of ~150,000 cell/well; • 3. Add different concentrations of test article to wells, maintain in incubator at 37° C. and 5% CO2 for 1 hour; • 4. Add IL-12 (final concentration: 2 ng/ml) and IL-18 (final concentration: 5 ng/ml) to stimulate for 24 hours in the above incubator; • 5. After 24 hours, centrifuge at 2000 rpm for 5 min, take the supernatant and analyze according to instructions of the ELISA kit.
For orientation: In an ELISA, binding on a coated surface is turned into a signal by an enzyme label.

Data set [4] addresses T2, JAK1. The data set is described as follows: JAK1 cellular ELISA assay using PBMC cells (IL-6 stimulated STAT3 phosphorylation). The format is cell-based. The note with it: IL-6 100 ng/ml, 25 min. The procedure: Purpose: test cellular JAK1 activity using the IL-6 stimulated STAT3 phosphorylation assay in PBMC cells.
• 1. Plate PBMC cells to 96-well plate at density of ~300,000 cell/well; • 2. Add different concentrations of test article to wells, maintain in incubator at 37° C. and 5% CO2 for 1 hour; • 3. Add IL-6 (final concentration: 100 ng/ml) to stimulate for 25 min in the above incubator; • 4. After stimulation, transfer the suspension to 1.5 mL tube, centrifuge at 200 g for 5 min, collect cells, add 100 μL 1× lysate, lyse on ice for 1 hour; • 5. Centrifuge at 4° C. and 12000 rpm for 10 min, take the supernatant and analyze according to instructions of the ELISA kit.

Data set [5] in a line: Human liver microsome stability assay. Type of data set: in vitro ADME. To be noted: liver microsomes. The procedure: The assay was conducted following procedures as below: • 1. Prepared 8 sample plates of 96-well plates, named as T0, T3, T6, T9, T15, T30, NCF30, BLANK. • 2. Dispensed 100 μl/well human microsomes to each plate. • 3. Dispensed 2 μL compound or control working solution/well to each plate (T0, T3, T6, T9, T15, T30, NCF30) except matrix blank and incubation plates at 37° C. for about 10 min. The final concentration of test compound was 1 μM. For T0, added 600 (μL/well) of cold stop solution immediately. • 4. Added 98 μL 100 mM potassium phosphate buffer/well to NCF30 plate, incubated at 37° C., start reaction. • 5. After pre-warming, dispensed NADPH regenerating system to 96-well plate as reservoir according to the plate map. Then added 98 μL/well to every plate (Blank, T30, T15, T9, T6, T3, T0) to start reaction. • 6. The reaction was stopped by the addition of 600 μl of cold stop solution at 0, 3, 6, 9, 15 and 30 minutes. Samples were shaked for 10 min and then centrifuged at 3220 g for 20 min. The supernatant was taken from each well and diluted with dilution solution before being analyzed by LC/MS/MS. • 7. […]
The slope value, k, was determined by linear regression of the natural logarithm of the remaining percentage of the parent drug vs. incubation time curve. The in vitro t1/2 was determined from the slope value: […]
Background: Liver microsomes are a subcellular fraction often used to study metabolism.

A short description of data set [6]: Mini-pig dermal pharmacokinetic study. Type of data set: in vivo, Guangxi Bama mini-pigs. The note with it: for AUC(0-t): 15 mg/cm^2, topical ointment. The procedure:
The aim of this study was to obtain the distribution of test articles in mini-pig after topical administration. Test articles were formulated as ointment and then applied to 2 female Guangxi Bama mini-pigs (8-12 kg) (Wujiang Tian yu Biological Technology). Briefly, total area estimated to be approximately 10% of the total body surface area were clipped free of hair before treatment using electric clippers. The test article was dosed evenly to the skin with 15 mg/cm^2 at 0 h, 8 h and 24 h. Test articles were removed before next dosing. Blood and skin samples were collected at 24 h (pre-dosing), 25 h, 28 h, 32 h, 48 h and 96 h. The blood was taken via peripheral vein of each animal into pre-chilled tube containing potassium (K2) EDTA as anticoagulant. Exposed skin was washed using ethanol and then wiped with dry cotton swab before skin sample collection. Eight samples of dosing skin were drilled with a biopsy punch (0.7 cm diameter) for each time point. Epidermis and dermis were separated and the eight samples from the same time point were pooled together and homogenized. All the above samples and homogenate were quantified by LC-MS/MS analysis.

In a further data set the target is JAK2 (Homo sapiens, UniProt O60674). The data set is described as follows: JAK2 biochemical test (33P-ATP filter binding kinase assay). The note with it: room temperature, 2 hours. The method, then:
as §1, §2, §3

In another data set the target is T3, JAK3 (Homo sapiens, UniProt P52333).
T3 sequence (P52333 1-1124): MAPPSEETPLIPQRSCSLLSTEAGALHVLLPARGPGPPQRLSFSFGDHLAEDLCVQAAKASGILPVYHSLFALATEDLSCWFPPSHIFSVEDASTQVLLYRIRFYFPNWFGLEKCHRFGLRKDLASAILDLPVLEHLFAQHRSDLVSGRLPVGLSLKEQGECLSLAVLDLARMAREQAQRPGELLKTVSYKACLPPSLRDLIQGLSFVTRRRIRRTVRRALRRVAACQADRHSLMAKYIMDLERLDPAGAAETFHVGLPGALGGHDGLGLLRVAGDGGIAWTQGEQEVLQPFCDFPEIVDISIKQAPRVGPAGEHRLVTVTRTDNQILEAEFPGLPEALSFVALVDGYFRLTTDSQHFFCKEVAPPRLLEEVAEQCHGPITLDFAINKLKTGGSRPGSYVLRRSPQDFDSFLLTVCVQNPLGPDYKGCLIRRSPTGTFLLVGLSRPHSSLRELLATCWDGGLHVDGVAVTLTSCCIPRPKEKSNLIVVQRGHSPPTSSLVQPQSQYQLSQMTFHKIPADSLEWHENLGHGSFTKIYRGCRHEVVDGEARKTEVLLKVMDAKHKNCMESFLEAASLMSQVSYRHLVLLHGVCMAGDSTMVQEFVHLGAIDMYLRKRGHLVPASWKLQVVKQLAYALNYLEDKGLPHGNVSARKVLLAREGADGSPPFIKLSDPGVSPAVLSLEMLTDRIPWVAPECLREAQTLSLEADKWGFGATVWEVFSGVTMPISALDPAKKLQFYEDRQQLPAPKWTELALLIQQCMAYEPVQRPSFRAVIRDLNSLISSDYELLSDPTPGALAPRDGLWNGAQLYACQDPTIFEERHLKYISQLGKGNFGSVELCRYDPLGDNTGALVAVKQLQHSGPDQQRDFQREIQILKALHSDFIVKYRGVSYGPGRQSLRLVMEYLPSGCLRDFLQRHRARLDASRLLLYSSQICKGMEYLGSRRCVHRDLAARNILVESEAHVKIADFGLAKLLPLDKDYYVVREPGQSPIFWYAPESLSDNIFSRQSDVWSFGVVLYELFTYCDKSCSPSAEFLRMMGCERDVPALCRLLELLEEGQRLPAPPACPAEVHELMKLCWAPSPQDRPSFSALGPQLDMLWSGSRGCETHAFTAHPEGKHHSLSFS
The data set is described as follows: JAK3 biochemical test (33P-ATP filter binding kinase assay). To be noted: room temperature, 2 hours. The method, then:
as §1, §2, §3

The conditions of data set [7]: topical formulation, 1.2-37.6 g per application, twice a day; cited from earlier work.
The subject of the next data set is psoriasis. To be noted: cited from earlier work.

Where two headings read alike, the source gives them in different places.

This is an account of results in patent publication US20260347348A1, “JAK1/JAK2/TYK2 Inhibitors For Topical Treatment of Dermatological Diseases” (Hangzhou Highlightll Pharmaceutical Co., Ltd, priority 2022, published 2026).

T1 sequence (P29597 whole entry): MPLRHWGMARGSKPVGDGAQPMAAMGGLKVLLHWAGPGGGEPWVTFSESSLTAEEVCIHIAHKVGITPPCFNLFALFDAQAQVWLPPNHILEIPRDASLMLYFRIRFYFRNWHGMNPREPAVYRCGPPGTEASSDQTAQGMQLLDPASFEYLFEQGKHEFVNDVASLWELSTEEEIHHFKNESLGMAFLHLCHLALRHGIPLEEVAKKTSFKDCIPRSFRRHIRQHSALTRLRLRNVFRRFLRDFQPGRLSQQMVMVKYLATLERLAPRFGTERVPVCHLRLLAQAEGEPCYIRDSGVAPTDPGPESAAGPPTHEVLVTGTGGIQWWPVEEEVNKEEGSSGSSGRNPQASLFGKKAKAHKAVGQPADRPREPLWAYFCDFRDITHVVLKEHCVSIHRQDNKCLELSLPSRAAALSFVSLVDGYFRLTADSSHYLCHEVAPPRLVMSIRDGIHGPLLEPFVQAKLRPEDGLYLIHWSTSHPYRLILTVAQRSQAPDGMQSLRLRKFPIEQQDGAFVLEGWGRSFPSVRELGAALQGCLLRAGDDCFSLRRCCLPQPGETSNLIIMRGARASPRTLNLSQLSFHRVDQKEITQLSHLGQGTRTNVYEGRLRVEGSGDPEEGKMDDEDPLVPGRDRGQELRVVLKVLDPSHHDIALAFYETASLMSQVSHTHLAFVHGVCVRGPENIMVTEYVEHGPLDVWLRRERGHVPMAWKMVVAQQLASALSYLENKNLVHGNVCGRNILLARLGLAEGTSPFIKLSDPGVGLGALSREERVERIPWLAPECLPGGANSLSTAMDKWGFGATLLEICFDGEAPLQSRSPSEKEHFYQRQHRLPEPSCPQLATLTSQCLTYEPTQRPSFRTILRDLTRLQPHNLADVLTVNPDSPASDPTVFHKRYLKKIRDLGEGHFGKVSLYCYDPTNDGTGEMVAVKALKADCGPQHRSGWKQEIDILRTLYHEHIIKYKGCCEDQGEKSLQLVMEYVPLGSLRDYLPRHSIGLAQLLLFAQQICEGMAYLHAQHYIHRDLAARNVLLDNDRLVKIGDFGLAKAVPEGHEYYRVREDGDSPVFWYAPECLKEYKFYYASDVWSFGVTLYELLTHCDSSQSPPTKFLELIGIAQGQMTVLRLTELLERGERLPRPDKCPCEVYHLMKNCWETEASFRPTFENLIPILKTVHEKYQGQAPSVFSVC
Sequence of JAK2 (O60674 whole entry): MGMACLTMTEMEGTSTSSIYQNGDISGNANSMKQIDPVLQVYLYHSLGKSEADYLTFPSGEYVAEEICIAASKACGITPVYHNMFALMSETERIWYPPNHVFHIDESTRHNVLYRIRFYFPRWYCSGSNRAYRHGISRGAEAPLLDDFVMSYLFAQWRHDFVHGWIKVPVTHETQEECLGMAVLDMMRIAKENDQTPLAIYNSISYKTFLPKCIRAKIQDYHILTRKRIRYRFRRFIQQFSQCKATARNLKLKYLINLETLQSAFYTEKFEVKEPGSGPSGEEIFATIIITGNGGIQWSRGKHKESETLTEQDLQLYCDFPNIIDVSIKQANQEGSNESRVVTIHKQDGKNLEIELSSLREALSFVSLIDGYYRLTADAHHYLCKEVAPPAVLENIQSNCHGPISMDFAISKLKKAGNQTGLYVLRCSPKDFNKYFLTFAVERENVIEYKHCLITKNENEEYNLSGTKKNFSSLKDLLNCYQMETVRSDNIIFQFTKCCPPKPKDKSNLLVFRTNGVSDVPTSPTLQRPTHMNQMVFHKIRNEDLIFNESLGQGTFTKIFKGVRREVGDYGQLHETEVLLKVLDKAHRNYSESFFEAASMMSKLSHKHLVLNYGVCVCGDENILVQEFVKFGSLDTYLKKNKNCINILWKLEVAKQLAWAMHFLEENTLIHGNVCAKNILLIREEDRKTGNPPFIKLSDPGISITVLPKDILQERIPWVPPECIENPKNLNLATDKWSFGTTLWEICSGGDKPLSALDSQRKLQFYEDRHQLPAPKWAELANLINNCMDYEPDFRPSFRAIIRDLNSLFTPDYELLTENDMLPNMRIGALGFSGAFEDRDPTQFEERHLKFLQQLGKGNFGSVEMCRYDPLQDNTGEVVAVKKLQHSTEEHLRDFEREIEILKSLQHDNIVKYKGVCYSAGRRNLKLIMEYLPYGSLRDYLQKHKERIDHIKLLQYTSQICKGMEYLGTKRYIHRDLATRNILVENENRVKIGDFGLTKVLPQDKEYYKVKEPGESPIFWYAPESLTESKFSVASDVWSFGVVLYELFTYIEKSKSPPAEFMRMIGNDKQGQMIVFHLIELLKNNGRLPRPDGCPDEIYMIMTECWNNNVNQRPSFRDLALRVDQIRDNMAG

With `Cc1cnc(Nc2cnn(C)c2)nc1-c1cnn([C@H](CC#N)C2CCCC2)c1` [Compound 4, (R)-3-cyclopentyl-3-(4-(5-methyl-2-((1-methyl-1H-pyrazol-4-yl)amino)pyrimidin-4-yl)-1H-pyrazol-1-yl) propanenitrile], the IC50 (commonly the concentration at which inhibition is half-maximal) on TYK2 [1] is under 1 nM; on JAK1 [2], under 1 nM; against TYK2 [3] it was under 10 nM; against JAK1 [4] it was under 500 nM. Also, the “TYK2/JAK1/JAK2 inhibition (in words)” value in the data set on TYK2/JAK1/JAK2 is “potent TYK2/JAK1/JAK2 inhibitors”. In addition, the half-life (as a rule, the time needed for the level to fall by half in the phase considered) at 1 µM in data set [5] turned out to be 21 min. In addition, in data set [5] (read-out: in vitro CLint(mic)), the microsomal CLint at 1 µM is 65.9 µL/min/mg. Also, the AUC(0-t) in data set [6] (minipig, plasma, topical or ocular, 15 mg/cm^2 at 0 h, 8 h and 24 h, plasma, read-out: Plasma AUC0-last) is 0.103 µg·h/mL; in [6] (minipig, topical or ocular, 15 mg/cm^2 at 0 h, 8 h and 24 h, dermis, read-out: Dermis AUC0-last), 517 µg·h/mL; in data set [6] (minipig, topical or ocular, 15 mg/cm^2 at 0 h, 8 h and 24 h, epidermis, read-out: Epidermis AUC0-last) it was 3520 µg·h/mL. The Kp in [6] (minipig, topical or ocular, topical ointment, 15 mg/cm^2 at 0 h, 8 h and 24 h, read-out: Dermis/Plasma ratio (AUC)) worked out at 5020. In [6] (topical administration), the “systemic exposure and skin distribution (in words)” value is “minimal systemic exposure and enrichment in dermis and epidermis”.

Turning to `CCS(=O)(=O)N1CC(CC#N)(n2cc(-c3nc(Nc4cnn(C)c4)ncc3C)cn2)C1` [Compound 18, 2-(1-(ethylsulfonyl)-3-(4-(5-methyl-2-((1-methyl-1H-pyrazol-4-yl)amino)pyrimidin-4-yl)-1H-pyrazol-1-yl)azetidin-3-yl)acetonitrile], the IC50 at TYK2 [1] was under 1 nM; on JAK1 [2], under 1 nM; on JAK2, under 1 nM; at JAK3 it was over 10 nM; against JAK1 [4], under 500 nM. Also, the “TYK2/JAK1/JAK2 inhibition (in words)” value with TYK2/JAK1/JAK2 is given as “potent TYK2/JAK1/JAK2 inhibitors”.

`N#CC[C@H](C1CCCC1)n1cc(-c2ncnc3[nH]ccc23)cn1` [ruxolitinib]: the Cmax (in general, the highest concentration seen after dosing) in data set [7] is 449 ± 883 nM.

For `CNC(=O)c1nnc(NC(=O)C2CC2)cc1Nc1cccc(-c2ncn(C)n2)c1OC` [deucravacitinib], the “Phase 2 and Phase 3 results in patients with psoriasis” value in the data set with psoriasis is “positive Phase 2 and Phase 3 results”.
